The record followed here is patent US11905230B2, “Phenoxyacetic acid derivatives, preparation method thereof and use thereof as medicament” (CHINA PHARMACEUTICAL UNIVERSITY, priority 2017, dated 2024).

Series [1] concerns the target hGPR40 receptor (Homo sapiens (Human), UniProt O14842). The experiment in a line: agonistic activity on hGPR40-CHO stably transfected cells (Fluo-4 / FLIPR). The conditions noted are these: for activation at 0.1 µM: 100 nM, relative to linoleic acid well; for EC50: mean ± SD of three determinations. Format: cell-based. How it is done: Experimental example 1 The agonistic activity of the compounds of the present invention on hGPR40-CHO stably transfected cells
The present invention used the following method to determine the GPR40 agonistic activity of the compounds of the invention:
hGPR40-CHO stably transfected cells were seeded into a 96-well plate at a density of 3×10^4/well, and incubated overnight in a 37° C., 5% CO2 cell incubator; the medium was discarded, 100 μl of HBSS was added to each well, and 100 μl of Fluo-4 dye solution containing Probenecid was added and incubated at 37° C. for 90 min. After the incubation, the Fluo-4 dye solution was sucked out, 100 μl of HBSS buffer was added, and the dye was washed away; 100 μl of HBSS containing Probenecid was added to each well, and incubated at 37° C. for 10 min; different concentrations of drugs were added to each well of the 96-well plate and FLIPR (Molecular Devices) was used for readings according to the parameter setting table. The experimental results were analyzed.

Series [2] relates to normal mice. The experiment in a line: Oral glucose tolerance test (OGTT) in normal mice. The conditions noted are these: for effect on oral glucose tolerance in mice (in words): OGTT in normal mice, 20 mg/kg; for blood glucose level at 15 min / blood glucose level at 0 min / blood glucose level at 30 min / blood glucose level at 60 min / blood glucose level at 120 min: OGTT, 20 mg/kg by gavage, n = 8, in mmol/L (unit assumed); for blood glucose level at 15 min: 15 min after glucose load; for blood glucose level at 0 min: 30 min after dosing, before glucose load; for blood glucose level at 30 min: 30 min after glucose load; for blood glucose level at 60 min: 60 min after glucose load; for blood glucose level at 120 min: 120 min after glucose load. Type of series: in vivo, Kunming mice. How it is done: Experimental example 2 In vivo hypoglycemic activity of the compounds of the present invention can be determined by using an assay system as described below:
The mice were fasted for 12 hours before experiment and water was taken freely, each group was administrated by gavage, blood was taken from the tail, and the blood glucose level was measured (recorded as −30 min).

A short description of series [3]: Evaluation of hepatotoxicity: serum ALT, AST and TBIL after 4 weeks of dosing. Format: in vivo. The conditions noted are these: serum, once a day for consecutive 4 weeks; x ± SD, n = 6. The protocol: Experimental example 3 Evaluation of hepatotoxicity of the compounds of the present invention:
The test compounds were administered once a day for consecutive 4 weeks, blood was taken, and the contents of alanine aminotransferase (ALT), aspartate aminotransferase (AST), and total bilirubin (TBIL) were measured.

The structures appear in SMILES notation.

hGPR40 receptor, sequence (O14842 whole entry): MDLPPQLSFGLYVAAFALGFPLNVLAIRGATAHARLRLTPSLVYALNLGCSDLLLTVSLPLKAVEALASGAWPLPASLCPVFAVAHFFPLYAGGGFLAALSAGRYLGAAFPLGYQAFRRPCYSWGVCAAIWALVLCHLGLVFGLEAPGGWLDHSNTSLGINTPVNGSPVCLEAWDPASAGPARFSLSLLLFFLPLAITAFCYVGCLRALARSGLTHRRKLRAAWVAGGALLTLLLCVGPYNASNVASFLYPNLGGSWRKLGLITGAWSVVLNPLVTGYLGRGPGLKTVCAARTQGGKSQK

Regarding `COc1ccccc1-c1cccc(CNc2ccc(OCC(=O)O)c(F)c2)c1` [Compound I-6, 2-(4-((2′-methoxy-[1,1′-biphenyl]-3-methylene)amino)-2-fluorophenoxy)acetic acid], the melting point (commonly the temperature of the solid-liquid transition) lay in the range of 95 to 96 °C. This compound also yielded an activation at 0.1 µM in series [1] of 53%.
The compound `N#Cc1ccccc1-c1cccc(CNc2ccc(OCC(=O)O)c(F)c2)c1` [Compound I-7, 2-(4-((2′-Nitrile-[1,1′-biphenyl]-3-methylene)amino)-2-fluorophenoxy)acetic acid] yielded a melting point of 137 to 140 °C. This compound also showed an activation at 0.1 µM in series [1] of 45%.
The corresponding values for `Cc1noc(C)c1-c1cccc(CNc2ccc(OCC(=O)O)c(F)c2)c1` [Compound I-14, 2-(4-((3-(3,5-dimethylisoxazol-4-yl)benzyl)amino)-2-fluorophenoxy)acetic acid] are 72 to 73 °C and 54%.
On the same counts, the results for `COc1cc(C)c(-c2cccc(CNc3ccc(OCC(=O)O)cc3)c2)c(C)c1` [Compound I-18, 2-(4-((4′-methoxy-2′,6′-dimethyl-[1,1′-biphenyl]-3-methylene)amino)phenoxy)acetic acid] are 131 to 134 °C and 65%.
On the same counts, the results for `COc1ccc(-c2cccc(CNc3ccc(OCC(=O)O)cc3)c2)c(C)c1` [Compound I-21] are 121 to 124 °C and 75%.
`Cc1cc(OC(C)C)ccc1-c1cccc(CNc2ccc(OCC(=O)O)c(F)c2)c1` [Compound I-22] displayed a melting point of 134 to 137 °C. In series [1], the activation at 0.1 µM stood at 65%.
In turn, `Cc1cc(OC(C)C)ccc1-c1cccc(CNc2ccc(OCC(=O)O)cc2)c1` [Compound I-23] had a melting point of 132 to 135 °C. The same compound gave an activation at 0.1 µM in series [1] of 62%.
With `O=C(O)COc1ccc(NCc2cccc(-c3ccccc3Cl)c2)cc1` [Compound I-24, 2-(4-((2′-chloro-[1,1′-biphenyl]-3-methylene)amino)phenoxy)acetic acid], the melting point lay in the range of 124 to 126 °C. Further, in series [1], the activation at 0.1 µM was determined as 80% and the EC50 (commonly the concentration that produces a half-maximal response) was found to be 18.6 ± 2.7 nM. In series [2], the “effect on oral glucose tolerance in mice (in words)” value is “significantly improve oral glucose tolerance”, the “blood glucose level at 15 min” value is 9.22 ± 0.57, the “blood glucose level at 0 min” value turned out to be 4.39 ± 0.34 and the “blood glucose level at 30 min” value is 8.04 ± 0.49. Moreover, in series [2], the “blood glucose level at 60 min” value was found to be 5.29 ± 0.34 and the “blood glucose level at 120 min” value stood at 4.33 ± 0.33. In series [3], the “ALT (IU/L)” value was found to be 52.68 ± 5.7 IU/L, the “AST (IU/L)” value was found to be 116.78 ± 12.4 IU/L and the “TBIL (IU/L)” value is 2.56 ± 0.2 IU/L.
For `Cc1ccccc1-c1cccc(CNc2ccc(OCC(=O)O)cc2)c1` [Compound I-25, 2-(4-((2′-methyl-[1,1′-biphenyl]-3-methylene)amino)phenoxy)acetic acid], the melting point is 101 to 104 °C. In series [1], the activation at 0.1 µM amounted to 82% and the response was half-maximal at 17.3 ± 3.3 nM (EC50). In series [2], the “effect on oral glucose tolerance in mice (in words)” value is “significantly improve oral glucose tolerance”, the “blood glucose level at 15 min” value is given as 8.47 ± 0.45, the “blood glucose level at 0 min” value worked out at 4.48 ± 0.39 and the “blood glucose level at 30 min” value was 7.23 ± 0.39. In series [2], the “blood glucose level at 60 min” value is on record as 5.11 ± 0.29 and the “blood glucose level at 120 min” value is 4.29 ± 0.39. Also, in series [3], the “ALT (IU/L)” value is reported as 51.78 ± 4.5 IU/L, the “AST (IU/L)” value turned out to be 116.54 ± 8.9 IU/L and the “TBIL (IU/L)” value was 2.69 ± 0.4 IU/L.
Compound `O=C(O)COc1ccc(NCc2cccc(-c3ccccc3F)c2)cc1` [Compound I-26, 2-(4-((2′-fluoro-[1,1′-biphenyl]-3-methylene)amino)phenoxy)acetic acid] showed a melting point of 111 to 112 °C. The compound also came in with an activation at 0.1 µM in series [1] of 61%.
Compound `Cc1ccc(-c2cccc(CNc3ccc(OCC(=O)O)cc3)c2)c(Cl)c1` [Compound I-27, 2-(4-((2′-chloro-4′-methyl-[1,1′-biphenyl]-3-methylene)amino)phenoxy)acetic acid] gave a melting point of 111 to 114 °C. This compound came in with an activation at 0.1 µM in series [1] of 69%.
The corresponding values for `O=C(O)COc1ccc(NCc2cccc(-c3ccccc3OC(F)(F)F)c2)cc1` [Compound I-32, 2-(4-((2′-trifluoromethoxy-[1,1′-biphenyl]-3-methylene)amino)phenoxy)acetic acid] are 107 to 110 °C and 46%.
`O=C(O)COc1ccc(NCc2cccc(-c3ccccc3OC(F)(F)F)c2)cc1F` [Compound I-33] came in with a melting point of 111 to 113 °C. The compound further came in with an activation at 0.1 µM in series [1] of 50%.
In the case of `Cc1cc(OC(F)(F)F)cc(C)c1-c1cccc(CNc2ccc(OCC(=O)O)c(F)c2)c1` [Compound I-34, 2-(4-((4′-trifluoromethoxy-2′,6′-dimethyl-[1,1′-biphenyl]-3-methylene)amino)-2-fluorophenoxy)acetic acid], the melting point was 127 to 130 °C. The same compound had an activation at 0.1 µM in series [1] of 64%.
On the same counts, the results for `Cc1cc(OC(F)(F)F)ccc1-c1cccc(CNc2ccc(OCC(=O)O)c(F)c2)c1` [Compound I-35, 2-(4-((4′-trifluoromethoxy-2′-methyl-[1,1′-biphenyl]-3-methylene)amino)2-fluorophenoxy)acetic acid] are 123 to 125 °C and 78%.
In turn, `CCOCCOc1cc(C)c(-c2cccc(CNc3ccc(OCC(=O)O)c(F)c3)c2)c(C)c1` [Compound I-36, 2-(2-fluoro-4-((4′-(2-ethoxyethoxy)-2′,6′-dimethyl-[1,1′-biphenyl]-3-methylene)amino)phenoxy)acetic acid] yielded a melting point of 137 to 139 °C. This compound came in with an activation at 0.1 µM in series [1] of 56%.
The corresponding values for `CCOCCOc1cc(C)c(-c2cccc(CNc3ccc(OCC(=O)O)cc3)c2)c(C)c1` [Compound I-37, 2-(4-((4′-(2-ethoxyethoxy)-2′,6′-dimethyl-[1,1′-biphenyl]-3-methylene)amino)phenoxy)acetic acid] are 133 to 136 °C and 50%.
On the same counts, the results for `COCOc1cc(C)c(-c2cccc(CNc3ccc(OCC(=O)O)c(F)c3)c2)c(C)c1` [Compound I-38, 2-(2-fluoro-4-((4′-(2-methoxymethoxy)-2′,6′-dimethyl-[1,1′-biphenyl]-3-methylene)amino)phenoxy)acetic acid] are 136 to 138 °C and 64%.
`COCOc1cc(C)c(-c2cccc(CNc3ccc(OCC(=O)O)cc3)c2)c(C)c1` [Compound I-39, 2-(4-((4′-(2-methoxymethoxy)-2′,6′-dimethyl-[1,1′-biphenyl]-3-methylene)amino)phenoxy)acetic acid] showed a melting point of 132 to 134 °C. In series [1], this compound came in with an activation at 0.1 µM of 60%.
On the same counts, the results for `CCOCOc1cc(C)c(-c2cccc(CNc3ccc(OCC(=O)O)c(F)c3)c2)c(C)c1` [Compound I-40, 2-(2-fluoro-4-((4′-(2-ethoxymethoxy)-2′,6′-dimethyl-[1,1′-biphenyl]-3-methylene)amino)phenoxy)acetic acid] are 136 to 139 °C and 63%.
As for `CCOCOc1cc(C)c(-c2cccc(CNc3ccc(OCC(=O)O)cc3)c2)c(C)c1` [Compound I-41, 2-(4-((4′-(2-ethoxymethoxy)-2′,6′-dimethyl-[1,1′-biphenyl]-3-methylene)amino)phenoxy)acetic acid], the melting point was 128 to 131 °C. The compound also yielded an activation at 0.1 µM in series [1] of 59%.
On to `CCCCCCOc1cc(C)c(-c2cccc(CNc3ccc(OCC(=O)O)cc3)c2)c(C)c1` [Compound I-43, 2(4-(((4′-(hexyloxy)-2′,6′-dimethyl-[1,1′-biphenyl]-3-yl)methyl)amino)phenoxy)acetic acid], for which the melting point was 130 to 132 °C.
Compound `Cc1cc(OC2CCCCC2)cc(C)c1-c1cccc(CNc2ccc(OCC(=O)O)c(F)c2)c1` [Compound I-44, 2(2-fluoro-4-(((4′-(cyclohexyloxy)-2′,6′-dimethyl-[1,1′-biphenyl]-3-yl)methyl)amino)phenoxy)acetic acid] returned a melting point of 136 to 138 °C.
